Data published in PMC7948495, “The flexible N-terminus of BchL autoinhibits activity through interaction with its [4Fe-4S] cluster and released upon ATP binding” (The Journal of Biological Chemistry, 2020).

What was measured:
BchL [1] = molecular target: T1, BchL (Cereibacter sphaeroides, UniProt Q9RFD6); test: EPR of the [4Fe-4S] cluster; assay type: binding; details: 40 µM BchL, 3 mM ADP, 1.7 mM dithionite
T1 construct: full-length with N-terminal 6xHis tag and TEV site; recombinant, plasmid-expressed; anaerobically purified; homodimer bridged by one [4Fe-4S] cluster

linked-BchL (L1-L2) [2] = molecular target: T2, linked-BchL (L1-L2) (Cereibacter sphaeroides, UniProt Q9RFD6); test: nitrocellulose filter binding; details: labelled compound (α32P-ATP tracer); 4 µM BchL, 1 mM ATP, 10 mM MgCl2, pH 7.5, 25 °C; stoichiometry, no affinity constant
T2 construct: N-terminal 6xHis tag and TEV site
Text: nitrocellulose filter binding on linked-BchL (L1-L2) | linked-BchL with unaltered ATP-binding sites ([…]) bind ATP to similar extents

BchL [3] = molecular target: T3, BchL (Cereibacter sphaeroides, UniProt Q9RFD6, D180N/D182N); test: nitrocellulose filter binding; details: labelled compound (α32P-ATP tracer); 4 µM BchL, 1 mM ATP, 10 mM MgCl2, pH 7.5, 25 °C; stoichiometry, no affinity constant
T3 construct: full-length with N-terminal 6xHis tag and TEV site; recombinant, plasmid-expressed; anaerobically purified; homodimer bridged by one [4Fe-4S] cluster

BchL [4] = molecular target: T4, BchL (Cereibacter sphaeroides, UniProt Q9RFD6, S17A); test: hydrogen-deuterium exchange mass spectrometry; assay type: binding; details: 2 mM ATP, 10 mM MgCl2, pD 7.5, anaerobic
T4 construct: full-length with N-terminal 6xHis tag and TEV site; recombinant, plasmid-expressed; anaerobically purified; homodimer bridged by one [4Fe-4S] cluster

BchL [5] = molecular target: T1, BchL; test: nitrocellulose filter binding; details: labelled compound (α32P-ATP tracer); 4 µM BchL, 1 mM ATP, 10 mM MgCl2, pH 7.5, 25 °C; stoichiometry, no affinity constant
linked-BchL (L1-L2) [6] = molecular target: T5, linked-BchL (L1-L2) (Cereibacter sphaeroides, UniProt Q9RFD6, K44A); test: nitrocellulose filter binding; details: labelled compound (32P-ATP tracer); 1 mM ATP, 10 mM MgCl2, pH 7.5, 25 °C; one of two sites mutated
T5 construct: N-terminal 6xHis tag and TEV site
T5 sequence (Q9RFD6 whole entry K44A): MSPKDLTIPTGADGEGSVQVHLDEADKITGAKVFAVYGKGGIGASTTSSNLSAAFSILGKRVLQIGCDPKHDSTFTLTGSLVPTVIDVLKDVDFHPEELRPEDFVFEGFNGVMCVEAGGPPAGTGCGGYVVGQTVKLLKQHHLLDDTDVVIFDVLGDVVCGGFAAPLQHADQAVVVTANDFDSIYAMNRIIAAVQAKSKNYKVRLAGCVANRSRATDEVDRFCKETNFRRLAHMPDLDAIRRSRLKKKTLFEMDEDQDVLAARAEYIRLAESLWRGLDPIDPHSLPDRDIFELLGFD

T1 sequence (Q9RFD6 whole entry): as the sequence (Q9RFD6 whole entry K44A) above, with A44K counted along it
T4 sequence (Q9RFD6 whole entry S17A): as the sequence (Q9RFD6 whole entry K44A) above, with S17A, A44K counted along it
T2 sequence (Q9RFD6 whole entry): as the sequence (Q9RFD6 whole entry K44A) above, with A44K counted along it
T3 sequence (Q9RFD6 whole entry D180N/D182N): as the sequence (Q9RFD6 whole entry K44A) above, with A44K, D180N, D182N counted along it

| SMILES | EPR of the [4Fe-4S] cluster (BchL [1]) | nitrocellulose filter binding (linked-BchL (L1-L2) [2]) | ATP bound per BchL dimer (BchL [3]) | hydrogen-deuterium exchange mass spectrometry (BchL [4]) | ATP bound per BchL dimer (BchL [5]) | nitrocellulose filter binding (linked-BchL (L1-L2) [6]) |
| --- | --- | --- | --- | --- | --- | --- |
| Nc1ncnc2c1ncn2[C@@H]1O[C@H](COP(=O)(O)OP(=O)(O)O)[C@@H](O)[C@H]1O [ADP] | with ADP, the proportion of the FeS^A species was diminished by a factor of two | – | – | – | – | – |
| Nc1ncnc2c1ncn2[C@@H]1O[C@H](COP(=O)(O)OP(=O)(O)OP(=O)(O)O)[C@@H](O)[C@H]1O [ATP] | – | linked-BchL with unaltered ATP-binding sites (L1L2) bind ATP to similar extents | ~ 2 ATP per dimer | Both BchL and BchL^S17A show similar patterns of reduced deuteration upon binding to ATP | ~ 2 ATP per dimer | When only one of the two ATP binding sites is mutated (L1^KA-L2), partial ATP binding is observed |
